The values that follow come from ChEMBL document CHEMBL5034026, “Design, synthesis and evaluation of 2'-acetylene-7-deaza-adenosine phosphoamidate derivatives as anti-EV71 and anti-EV-D68 agents” (Eur J Med Chem, 2021).

Series [1] is described as follows: Selectivity index, ratio of CC50 for human RD cells to IC50 for Enterovirus A71 infected in human RD cells. As to conditions: read-out: Selectivity Index. It is filed as toxicity, cell-based.
Series [2] in a line: Cytotoxicity against human RD cells assessed as reduction in cell viability by Cell Titer-Glo luminescent cell viability assay. It is filed as cell-based. To be noted: RD cells.
The next series concerns Enterovirus A71. Kind of series: Antiviral activity against Enterovirus A71 infected in human RD cells assessed as inhibition of viral replication measured after 4 days by Cell Titer-Glo luminescent cell viability assay. It counts as functional, organism-based. As to conditions: Enterovirus A, 96 h. For orientation: In ATP-based viability assays light output follows the ATP content of the culture.

For a further series, the system named is enterovirus D68. Kind of series: Antiviral activity against Enterovirus D68 infected in human RD cells assessed as inhibition of viral replication measured after 4 days by Cell Titer-Glo luminescent cell viability assay. It counts as functional, organism-based. To be noted: Enterovirus D, 96 h.
Series [3] is described as follows: Selectivity index, ratio of CC50 for human RD cells to IC50 for Enterovirus D68 infected in human RD cells. It is filed as toxicity, cell-based. To be noted: read-out: Selectivity Index.

One may read the CC50 as the concentration giving 50% cytotoxicity. Usually IC50 stands for the concentration that inhibits the measured activity by half.

On to `C#C[C@@]1(O)[C@H](O)[C@@H](COP(=O)(N[C@@H](CCSC)C(=O)OC(C)C)Oc2ccccc2)O[C@H]1n1ccc2c(N)ncnc21` (stereo not given in full), for which the results for the selectivity ratio in series [1] and in series [3] were 11.3 and 2.92, respectively. Besides, the CC50 in series [2] came out at 8.95 µM. For the same compound, the figures for the half-maximal inhibitory concentration (IC50) with Enterovirus A71 and in the series with enterovirus D68 were 0.79 µM and 3.06 µM, respectively.

On to `C#C[C@@]1(O)[C@H](O)[C@@H](COP(=O)(N[C@@H](CC(C)C)C(=O)OC(C)C)Oc2ccccc2)O[C@H]1n1ccc2c(N)ncnc21` (stereo not given in full), for which the selectivity ratio in series [1] was 33.8; in series [3] it was 51.2. The CC50 in series [2] stood at 21 µM. For the same compound, the results for the half-inhibitory concentration (IC50) in the series with Enterovirus A71 and in the series on enterovirus D68 were 0.62 µM and 0.41 µM, respectively.

Consider `C#C[C@@]1(O)[C@H](O)[C@@H](COP(=O)(N[C@@H](C)C(=O)OC(C)C)Oc2ccccc2)O[C@H]1n1ccc2c(N)ncnc21` (stereo not given in full), for which the selectivity ratio worked out at 17.1 in series [1] and 8.73 in series [3]. Moreover, the cytotoxic concentration (CC50) in series [2] was found to be 15.5 µM. For the same compound, the IC50 in the series with Enterovirus A71 worked out at 0.91 µM; in the series with enterovirus D68, 1.78 µM.

Regarding `C#C[C@@]1(O)[C@H](O)[C@@H](COP(=O)(N[C@@H](Cc2c[nH]c3ccccc23)C(=O)OC(C)C)Oc2ccccc2)O[C@H]1n1ccc2c(N)ncnc21` (stereo not given in full), the selectivity ratio in series [1] is 11.4; in series [3] it was 13.4. Moreover, the half-maximal cytotoxic concentration (CC50) in series [2] is 13.8 µM. Further, the values for the IC50 with Enterovirus A71 and with enterovirus D68 were 1.21 µM and 1.03 µM, respectively.

Consider `C#C[C@@]1(O)[C@H](O)[C@@H](COP(=O)(N[C@H](CCSC)C(=O)OC(C)C)Oc2ccccc2)O[C@H]1n1ccc2c(N)ncnc21` (stereo not given in full), for which, in the series with enterovirus D68, the IC50 came to 49.2 µM. Also, the selectivity ratio in series [3] came to 0.4.

Consider `C#C[C@@]1(O)[C@H](O)[C@@H](COP(=O)(N[C@@H](C)C(=O)OCCCCC)Oc2ccccc2)O[C@H]1n1ccc2c(N)ncnc21` (stereo not given in full), for which the CC50 in series [2] stood at 52.9 µM. The IC50 is 0.3 µM with Enterovirus A71 and 0.53 µM in the series with enterovirus D68. The selectivity ratio in series [3] amounted to 99.9.

As for `C#C[C@@]1(O)[C@H](O)[C@@H](COP(=O)(N[C@@H](C)C(=O)OC2CCCC2)Oc2ccccc2)O[C@H]1n1ccc2c(N)ncnc21` (stereo not given in full), the 50% inhibitory concentration (IC50) in the series with Enterovirus A71 was found to be 0.58 µM; in the series on enterovirus D68, 0.25 µM.

For the compound `C#C[C@@]1(O)[C@H](O)[C@@H](COP(=O)(N[C@@H](C)C(=O)OCC)Oc2ccccc2)O[C@H]1n1ccc2c(N)ncnc21` (stereo not given in full), the selectivity ratio in series [1] is 40.2; in series [3] it was 27.1. Besides, in series [2], the CC50 worked out at 33.4 µM. Further, the concentration for half-maximal inhibition (IC50) in the series with Enterovirus A71 was 0.83 µM; in the series on enterovirus D68 it was 1.23 µM.

As for `C#C[C@@]1(O)[C@H](O)[C@@H](COP(=O)(N[C@H](CC(C)C)C(=O)OC(C)C)Oc2ccccc2)O[C@H]1n1ccc2c(N)ncnc21` (stereo not given in full), the values for the selectivity ratio in series [1] and in series [3] were 125 and 3.7, respectively. The CC50 in series [2] was found to be 68.7 µM. The IC50 in the series with Enterovirus A71 was 0.55 µM; in the series with enterovirus D68, 18.6 µM.

For the compound `C#C[C@@]1(O)[C@H](O)[C@@H](COP(=O)(N[C@@H](C)C(=O)OCCC)Oc2ccccc2)O[C@H]1n1ccc2c(N)ncnc21` (stereo not given in full), the selectivity ratio in series [1] was under 0.47; in series [3], 105. Moreover, in series [2], the CC50 turned out to be 47.4 µM. Besides, the concentration for half-maximal inhibition (IC50) in the series on Enterovirus A71 is over 100 µM; in the series with enterovirus D68 it was 0.45 µM.

For `C#C[C@@]1(O)[C@H](O)[C@@H](COP(=O)(N[C@H](Cc2ccccc2)C(=O)OC(C)C)Oc2ccccc2)O[C@H]1n1ccc2c(N)ncnc21` (stereo not given in full), the results for the selectivity ratio in series [1] and in series [3] were 1.66 and 2.22, respectively. Besides, the CC50 in series [2] turned out to be 13.5 µM. Besides, the IC50 in the series on Enterovirus A71 is 8.16 µM; with enterovirus D68 it was 6.08 µM.

For the compound `C#C[C@@]1(O)[C@H](O)[C@@H](COP(=O)(N[C@@H](Cc2ccccc2)C(=O)OC(C)C)Oc2ccccc2)O[C@H]1n1ccc2c(N)ncnc21` (stereo not given in full), the selectivity ratio was 385 in series [1] and 5.52 in series [3]. In addition, the CC50 in series [2] stood at 69.2 µM. For the same compound, the figures for the half-maximal inhibitory concentration (IC50) in the series with Enterovirus A71 and in the series on enterovirus D68 were 0.18 µM and 12.6 µM, respectively.

On to `C#C[C@@]1(O)[C@H](O)[C@@H](COP(=O)(N[C@@H](C)C(=O)OCC(C)C)Oc2ccccc2)O[C@H]1n1ccc2c(N)ncnc21` (stereo not given in full), for which the half-inhibitory concentration (IC50) in the series with enterovirus D68 is 0.24 µM. The selectivity ratio in series [3] was found to be 169.
